This experiment relates to 299254-011-R-J1-PDC complex spheroid viability. As to the kind of experiment: Anticancer human tumor 299254-011-R-J1-PDC patient-derived melanoma cell line growth inhibition [POLQ]. Conditions: for viability, T/C: stronger effect = lower value. The method, then: Multicellular complex tumor spheroid response to Polymerase (POL) inhibitors (novobiocin, ART-558, RP6685) in combination with a variety of drugs and investigational agents in selected tumor cell lines
The POL inhibitors (novobiocin, ART-558, and RP6685) were evaluated both individually and in combination with standard of care and investigational anticancer small molecules within a complex spheroid model of solid tumors. . Complex spheroids include a stromal component modeled by human endothelial cells (HUVEC) and fibroblasts modeled by human mesenchymal stem cells (MSCs). The concentration ranges selected for each drug and investigational agent were based upon clinically achievable concentrations if the clinical Cmax of the agent was known.
Compounds. The drugs and investigational agents: novobiocin (NSC847541), ART-558 (NSC835418), RP-6685 (NSC848927), peposertib (NSC802822), ceralasertib (NSC780249), elimusertib (NSC800525), camonsertib (NSC841442), AZD-1390 (NSC803789), olaparib (NSC753686), talazoparib (NSC767125), rucaparib (NSC756644), sotorasib (NSC818433), MRTX-1133 (NSC836407), SN-38 (NSC673596), topotecan (NSC609699), epotoside (NSC141540), doxorubicin (NSC123127), gemcitabine (NSC613327), 5-fluorouracil (NSC19893), paclitaxel (NSC125973), vemurafenib (NSC761431), MSA-2 (NSC828583), SN-011 (NSC837082), adavosertib (NSC754352), prexasertib (NSC758257), carboplatin (NSC241240) and oxaliplatin (NSC266046), were obtained from the National Cancer Institute (NCI) Developmental Therapeutics Program Chemical Repository (21). The FDA-approved anticancer drug set is available from the Developmental Therapeutics Program at https://dtp.cancer.gov/organization/dscb/obtaining/. […] The stock solutions were prepared in dimethyl sulfoxide (DMSO, Sigma-Aldrich, St. Louis, MO, cat. D2650), except for the platinum compounds which were prepared in saline (Quality Biological, Gaithersburg, MD, cat. 114-055-101), at 800-fold the tested concentration and stored at -70 degrees C prior to their use. All drugs and investigational agents were tested over a range starting from a high concentration at or near the clinical Cmax and decreasing in half-log increments. If the clinical Cmax for an agent had not been determined, the highest concentration tested was 10 microM, except for SN-38, which was tested at a high concentration of 1 microM.
Cell Culture. All cells were maintained in an incubator at 37 degrees C and 5% CO2 with 95% humidity. The PDC lines were cultured according to standard operating procedures established by the NCI PDMR (https://pdmr.cancer.gov). Table 3 of the manuscript, lists the cell lines along with the number of the three cell types plated to form the mct-spheroids and media for tumor cell growth. After thawing, all PDC lines, except 997537-175-T-J1-PDC and 415267-285-R-J2-PDC, were cultured in Matrigel-coated flasks prepared with a working solution of 1X Ham's F-12 nutrient mix, without supplementation (Thermo Fisher Scientific, cat. 11765054), 100 U/mL penicillin-streptomycin (Thermo Fisher Scientific, cat. 15140122), and 2.5% Matrigel (Corning Inc., Corning, NY, cat. 354248) for the first three passages. The two PDC lines 997537-175-T-J1-PDC and 415267-285-R-J2-PDC were cultured on uncoated flasks. The 857933-349-R-J2-PDC line was cultured in 6C/Colon 1B media containing advanced DMEM/F-12 (Thermo Fisher Scientific, cat. 12634028), 10 mM HEPES (Thermo Fisher Scientific, cat. 15630080), 1X GlutaMAX supplement (Thermo Fisher Scientific, cat. 35050061), 0.1 mg/mL primocin (InvivoGen, San Diego, CA, cat. ant-pm-2), 10% defined fetal bovine serum, heat inactivated (HyClone Laboratories Inc., Logan, UT, cat. SH30070.03HI), 50% L-WRN conditioned media (ATCC, cat. CRL-3276), 1.25 mM N-Acetyl-L-cysteine (Sigma-Aldrich, cat. A9165), 10 mM nicotinamide (Sigma-Aldrich, cat. N0636), 1X B-27 supplement (Thermo Fisher Scientific, cat. 17504044), 1X N-2 supplement (Thermo Fisher Scientific, cat. […]

Molecules are shown by their SMILES. Several values for one entry are separate records, joined by “and”; a condition that tells them apart may be missing. Identical values can stand only once.
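Also: spheroids exposed to drugs for one week before measurement.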
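For viability, T/C in this document: percent viability relative to DMSO vehicle control taken as 100%.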

For the compound `CC[C@@]1(O)C(=O)OCc2c1cc1n(c2=O)Cc2cc3c(CN(C)C)c(O)ccc3nc2-1`, the viability, T/C was 98.9% and 101% and 112% (compound 0.000316 µM); 94.2% and 113% and 101% (compound 0.001 µM); 106% and 89.5% and 111% (compound 0.00316 µM); 103% (2×) and 114% (compound 0.01 µM); 107% and 108% and 94.4% (compound 0.0316 µM); 78.4% and 81.1% and 72.7% (compound 0.1 µM). Besides, the half-inhibitory concentration (IC50) (curve of compound) was above 100 nM.

For `CC(C)n1c(=O)n(C)c2cnc3cc(F)c(-c4ccc(OCCCN5CCCCC5)nc4)cc3c21`, the viability, T/C is 98.8% and 106% and 88.4% (compound 0.0316 µM); 96.7% and 99.9% and 85.7% (compound 0.1 µM); 112% and 108% and 95.3% (compound 0.316 µM); 101% and 95.5% and 94.9% (compound 1 µM); 89.8% and 106% and 90.2% (compound 3.16 µM); 73.4% and 78.9% and 88.5% (compound 10 µM). The IC50 (curve of compound) was above 10000 nM.

On to `O=c1[nH]cc(F)c(=O)[nH]1`, for which the viability, T/C runs as follows: (compound 0.0316 µM) 95.9% and 94% and 105%; (compound 0.1 µM) 103% and 102% and 106%; (compound 0.316 µM) 105% and 118% and 103%; (compound 1 µM) 96.4% and 103% and 93.8%; (compound 3.16 µM) 90.9% and 85.9% and 98.6%; (compound 10 µM) 74.2% and 79.7% and 81.9%. Moreover, for the setting “curve of compound”, the 50% inhibitory concentration (IC50) was above 10000 nM.

On to `COc1cccc2c1C(=O)c1c(O)c3c(c(O)c1C2=O)CC(O)(C(=O)CO)CC3OC1CC(N)C(O)C(C)O1` (stereo not drawn) + COC1C(OC(N)=O)C(O)C(Oc2ccc3c(O)c(NC(=O)c4ccc(O)c(CC=C(C)C)c4)c(=O)oc3c2C)OC1(C)C, for which the IC50 is, setting by setting: (curve of first compound, second compound 0.0316 µM) 564 nM; (curve of first compound, second compound 0.1 µM) 815 nM; (curve of first compound, second compound 0.316 µM) 527 nM; (curve of first compound, second compound 1 µM) 909 nM; (curve of first compound, second compound 3.16 µM) 826 nM; (curve of first compound, second compound 10 µM) 541 nM. The viability, T/C by setting is: (second compound 0.0316 µM, first compound 0.0316 µM) 81.9%; (second compound 0.0316 µM, first compound 0.1 µM) 96.5%; (second compound 0.0316 µM, first compound 0.316 µM) 55.2%; (second compound 0.0316 µM, first compound 1 µM) 40.7%; (second compound 0.0316 µM, first compound 3.16 µM) 9.45%; (second compound 0.0316 µM, first compound 10 µM) 3.09%. The viability, T/C is 86.8% (second compound 0.1 µM, first compound 0.0316 µM); 97.5% (second compound 0.1 µM, first compound 0.1 µM); 75.7% (second compound 0.1 µM, first compound 0.316 µM); 44.9% (second compound 0.1 µM, first compound 1 µM); 11.2% (second compound 0.1 µM, first compound 3.16 µM); 3% (second compound 0.1 µM, first compound 10 µM). The viability, T/C reads like this: (second compound 0.316 µM, first compound 0.0316 µM) 99.2%; (second compound 0.316 µM, first compound 0.1 µM) 96%; (second compound 0.316 µM, first compound 0.316 µM) 54.9%; (second compound 0.316 µM, first compound 1 µM) 37.8%; (second compound 0.316 µM, first compound 3.16 µM) 13.1%; (second compound 0.316 µM, first compound 10 µM) 0.51%. The viability, T/C runs as follows: (second compound 1 µM, first compound 0.0316 µM) 93%; (second compound 1 µM, first compound 0.1 µM) 87.5%; (second compound 1 µM, first compound 0.316 µM) 76.7%; (second compound 1 µM, first compound 1 µM) 49.2%; (second compound 1 µM, first compound 3.16 µM) 11.9%; (second compound 1 µM, first compound 10 µM) 0.78%. In addition, the viability, T/C is, setting by setting: (second compound 3.16 µM, first compound 0.0316 µM) 92.6%; (second compound 3.16 µM, first compound 0.1 µM) 95.5%; (second compound 3.16 µM, first compound 0.316 µM) 76.7%; (second compound 3.16 µM, first compound 1 µM) 45.6%; (second compound 3.16 µM, first compound 3.16 µM) 10.3%; (second compound 3.16 µM, first compound 10 µM) 0.92%. In addition, the viability, T/C reads like this: (second compound 10 µM, first compound 0.0316 µM) 105%; (second compound 10 µM, first compound 0.1 µM) 104%; (second compound 10 µM, first compound 0.316 µM) 65.2%; (second compound 10 µM, first compound 1 µM) 30%; (second compound 10 µM, first compound 3.16 µM) 10.7%; (second compound 10 µM, first compound 10 µM) 1.25%.

Turning to `CNCc1ccc(-c2[nH]c3cc(F)cc4c3c2CCNC4=O)cc1`, the viability, T/C was 117% and 108% and 100% (compound 0.0316 µM); 95.8% and 94.7% and 99.7% (compound 0.1 µM); 113% and 105% and 97.2% (compound 0.316 µM); 109% and 96.3% and 92.8% (compound 1 µM); 111% and 113% and 110% (compound 3.16 µM); 119% and 107% and 109% (compound 10 µM). Besides, the IC50 (curve of compound) was above 10000 nM.

In the case of `COC1C(OC(N)=O)C(O)C(Oc2ccc3c(O)c(NC(=O)c4ccc(O)c(CC=C(C)C)c4)c(=O)oc3c2C)OC1(C)C` (stereo not drawn), the viability, T/C (compound 3.16 µM) was 102% [middle of 13 runs]. In addition, the IC50 (compound alone, run of 11/27/2023) was above 10000 nM.

Consider `O=C(c1cc(Cc2n[nH]c(=O)c3ccccc23)ccc1F)N1CCN(C(=O)C2CC2)CC1`, for which the viability, T/C (compound 0.0316 µM) is 94.4% and 93.8% and 100%; the viability, T/C (compound 0.1 µM) was 101% and 83.9% and 107%; the viability, T/C (compound 0.316 µM) was 98.9% and 81.6% and 109%; the viability, T/C (compound 1 µM) is 97.1% and 85.2% and 89.6%; the viability, T/C (compound 3.16 µM) was 98.6% and 94.9% and 100%; the viability, T/C (compound 10 µM) was 88.7% and 80.5% and 96.8%. Also, where the note is “curve of compound”, the IC50 is above 10000 nM.

Consider `CC1COCCN1c1cc(C2(S(C)(=N)=O)CC2)nc(-c2ccnc3[nH]ccc23)n1` (stereo not drawn), for which the viability, T/C runs as follows: (compound 0.0316 µM) 92.2% and 108% and 93.8%; (compound 0.1 µM) 101% and 108% and 94.5%; (compound 0.316 µM) 106% and 104% and 111%; (compound 1 µM) 85.5% and 84.5% and 95%; (compound 3.16 µM) 57.9% and 60.5% and 65.8%; (compound 10 µM) 41.8% and 43.3% and 37.2%. For the same compound, under “curve of compound”, the half-inhibitory concentration (IC50) is 5430 nM and 6330 nM and 5970 nM.

For the compound `CCc1cc2c(N3CCc4c(cc(Cn5ccnc5)cc4-c4cn(C)nc4C(F)(F)F)C3=O)cc(C)nc2c(OC)n1`, the viability, T/C is 131% and 104% and 92.7% (compound 0.0316 µM); 90.2% and 96.5% and 106% (compound 0.1 µM); 118% and 92.2% and 99.7% (compound 0.316 µM); 99.2% and 94.1% and 99.4% (compound 1 µM); 103% and 86.5% and 90.4% (compound 3.16 µM); 59.6% and 62.7% and 67.7% (compound 10 µM). Under “curve of compound”, the IC50 is above 10000 nM.

As usually defined, the viability, T/C is the result in the treated group divided by that in the control group, in per cent. One may read the IC50 as the concentration that inhibits the measured activity by half.
